US11000033B2, “Ketone or oxime compound, and herbicide” (NISSAN CHEMICAL CORPORATION, priority 2014, dated 2021)

What was measured:
Type in all cases: in vivo
Amaranthus retroflexus = experiment: Test Example 4: herbicidal effect by soil treatment (symbol N); settings: for N (Amaranthus retroflexus) herbicidal effect grade: application herbicide amount 320 g/ha; for N: Amaranthus retroflexus, herbicidal effect grade: 320 g/ha
How it was run: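 Seeds were sown in sterilized diluvial soil, covered with about 1.5 cm of soil, and the soil surface was sprayed with a water-diluted emulsion of the compound at a predetermined rate. Plants grew in a greenhouse at 25° C. to 30° C.; effects were scored visually 3 weeks after application.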

soybean [1] = experiment: Test Example 4: effect on crop by soil treatment (symbol d); settings: for d (soybean) effect on crop grade: application herbicide amount 320 g/ha; for d: soybean, effect grade on crop: 320 g/ha
How it was run: (§1)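 Crop seed is sown in spots together with several weed species in a box of sterilized diluvial soil. It is covered by about 1.5 cm of soil and kept in a greenhouse held between 25° C. and 30° C.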

Scirpus juncoides [2] = experiment: Test Example 2: herbicidal activity, application during weed generation in submerged conditions (symbol B); settings: Table 23; application herbicide amount 320 g/ha; grade 0-5 by criteria of Test Example 1
How it was run: (§2)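 Treatment timing was the one- to two-leaf stage, with diluted emulsifiable compound dropped onto the paddy water (depth 4 cm) over alluvial soil. All three species grew from a mixed sowing in a 25° C. to 30° C. greenhouse. Injury was judged by eye 3 weeks on.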

[3] = system: Echinochloa oryzacola Vasing.; experiment: Test Example 1: herbicidal activity, application before weed generation in submerged conditions (symbol A); settings: application herbicide amount 320 g/ha
How it was run: (§3)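 Application before weed emergence: an aqueous dilution of the emulsion formulation was poured onto the surface of 4 cm-deep floodwater on the day of sowing. Effect was judged after 3 weeks (greenhouse, 25–30 °C).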

Monochoria vaginalis = experiment: Test Example 2: herbicidal activity, application during weed generation in submerged conditions (symbol C); settings: Table 23; application herbicide amount 320 g/ha; grade 0-5 by criteria of Test Example 1
How it was run: as §2

[4] = system: Echinochloa crus-galli var. crus-galli; experiment: Test Example 3: herbicidal effect by foliage application, Wagner pot (symbol H); settings: application herbicide amount 320 g/ha
How it was run: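 The compound, formulated as an emulsion and diluted with water to a predetermined rate, is applied uniformly to leaves of two-week-old seedlings growing in submerged alluvial soil at 25–30 °C. Rice is included. Each plant is assessed 3 weeks later using defined criteria.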

soybean [5] = experiment: Test Example 5: effect on crop by foliage application, plastic box (symbol d); settings: 320 g/ha, 3 weeks after application
How it was run: (§4)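 Plants were raised from seed in a greenhouse (25° C. to 30° C.) after sowing in a plastic box of sterilized diluvial soil.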

rapeseed = experiment: Test Example 4: effect on crop by soil treatment (symbol g); settings: for g (rapeseed) effect on crop grade: application herbicide amount 320 g/ha; for g: rapeseed, effect grade on crop: 320 g/ha
How it was run: as §1

Avena fatua = experiment: Test Example 5: herbicidal effect by foliage application, plastic box (symbol I); settings: 320 g/ha, 3 weeks after application
How it was run: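 Greenhouse foliar test: seedlings at 14 days, grown 25° C. to 30° C. in sterilized diluvial soil; compound applied as an aqueous dilution of an emulsion; response read 3 weeks after spraying.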

rice plant = experiment: Test Example 5: effect on crop by foliage application, plastic box (symbol b); settings: 320 g/ha, 3 weeks after application
How it was run: as §4

wheat = experiment: Test Example 5: effect on crop by foliage application, plastic box (symbol e); settings: 320 g/ha, 3 weeks after application
How it was run: as §4

Scirpus juncoides [6] = experiment: Test Example 1: herbicidal activity, application before weed generation in submerged conditions (symbol B); settings: application herbicide amount 320 g/ha
How it was run: as §3

CON=C(C)CC1CC(OC(=O)CCC2CCCCC2)=C(c2c(C)cc(C)cc2C)C1=O (stereo not drawn) [1-035]
N (Amaranthus retroflexus) herbicidal effect grade (Amaranthus retroflexus): 5 (Herbicidal ratio of 90% or more (almost completely withered)) | d (soybean) effect on crop grade (soybean [1]): 0 (Herbicidal ratio of 5% or lower (almost no effect)) | Herbicidal effect grade, B: Scirpus juncoides (Scirpus juncoides [2]): 4 (Herbicidal ratio of 70% or higher and lower than 90%) | Herbicidal effect grade, A: Echinochloa oryzacola Vasing. [3]: 5 (Herbicidal ratio of 90% or more (almost completely withered)) | Herbicidal effect grade, C: Monochoria vaginalis (Monochoria vaginalis): 4 (Herbicidal ratio of 70% or higher and lower than 90%) | herbicidal effect on H (Echinochloa crus-galli var. crus-galli), grade 0-5 [4]: 5 (Herbicidal ratio of 90% or more (almost completely withered)) | d: soybean, effect on crop grade (soybean [5]): 4 (Herbicidal ratio of 70% or higher and lower than 90%) | g (rapeseed) effect on crop grade (rapeseed): 5 (Herbicidal ratio of 90% or more (almost completely withered)) | I: Avena fatua, herbicidal effect grade (Avena fatua): 5 (Herbicidal ratio of 90% or more (almost completely withered)) | b: directly sowed rice plant, effect on crop grade (rice plant): 5 (Herbicidal ratio of 90% or more (almost completely withered)) | e: wheat, effect on crop grade (wheat): 5 (Herbicidal ratio of 90% or more (almost completely withered)) | Herbicidal effect grade, B: Scirpus juncoides (Scirpus juncoides [6]): 5 (Herbicidal ratio of 90% or more (almost completely withered))

CON=C(CC1CC(O)=C(c2c(C)cc(C)cc2C)C1=O)C(C)(C)C (stereo not drawn) [1-059]
N (Amaranthus retroflexus) herbicidal effect grade (Amaranthus retroflexus): 0 (Herbicidal ratio of 5% or lower (almost no effect)) | d (soybean) effect on crop grade (soybean [1]): 0 (Herbicidal ratio of 5% or lower (almost no effect)) | Herbicidal effect grade, B: Scirpus juncoides (Scirpus juncoides [2]): 0 (Herbicidal ratio of 5% or lower (almost no effect)) | Herbicidal effect grade, A: Echinochloa oryzacola Vasing. [3]: 5 (Herbicidal ratio of 90% or more (almost completely withered)) | Herbicidal effect grade, C: Monochoria vaginalis (Monochoria vaginalis): 0 (Herbicidal ratio of 5% or lower (almost no effect)) | herbicidal effect on H (Echinochloa crus-galli var. crus-galli), grade 0-5 [4]: 4 (Herbicidal ratio of 70% or higher and lower than 90%) | d: soybean, effect on crop grade (soybean [5]): 0 (Herbicidal ratio of 5% or lower (almost no effect)) | g (rapeseed) effect on crop grade (rapeseed): 0 (Herbicidal ratio of 5% or lower (almost no effect)) | I: Avena fatua, herbicidal effect grade (Avena fatua): 4 (Herbicidal ratio of 70% or higher and lower than 90%) | b: directly sowed rice plant, effect on crop grade (rice plant): 4 (Herbicidal ratio of 70% or higher and lower than 90%) | e: wheat, effect on crop grade (wheat): 0 (Herbicidal ratio of 5% or lower (almost no effect)) | Herbicidal effect grade, B: Scirpus juncoides (Scirpus juncoides [6]): 3 (Herbicidal ratio of 40% or higher and lower than 70%)

COCCOC1=C(c2c(C)cc(C)cc2C)C(=O)C(CC(C)=NOC)C1 (stereo not drawn) [1-037]
N (Amaranthus retroflexus) herbicidal effect grade (Amaranthus retroflexus): 0 (Herbicidal ratio of 5% or lower (almost no effect)) | d (soybean) effect on crop grade (soybean [1]): 0 (Herbicidal ratio of 5% or lower (almost no effect)) | Herbicidal effect grade, B: Scirpus juncoides (Scirpus juncoides [2]): 0 (Herbicidal ratio of 5% or lower (almost no effect)) | Herbicidal effect grade, A: Echinochloa oryzacola Vasing. [3]: 0 (Herbicidal ratio of 5% or lower (almost no effect)) | Herbicidal effect grade, C: Monochoria vaginalis (Monochoria vaginalis): 0 (Herbicidal ratio of 5% or lower (almost no effect)) | herbicidal effect on H (Echinochloa crus-galli var. crus-galli), grade 0-5 [4]: 0 (Herbicidal ratio of 5% or lower (almost no effect)) | d: soybean, effect on crop grade (soybean [5]): 0 (Herbicidal ratio of 5% or lower (almost no effect)) | g (rapeseed) effect on crop grade (rapeseed): 0 (Herbicidal ratio of 5% or lower (almost no effect)) | I: Avena fatua, herbicidal effect grade (Avena fatua): 0 (Herbicidal ratio of 5% or lower (almost no effect)) | b: directly sowed rice plant, effect on crop grade (rice plant): 0 (Herbicidal ratio of 5% or lower (almost no effect)) | e: wheat, effect on crop grade (wheat): 0 (Herbicidal ratio of 5% or lower (almost no effect)) | Herbicidal effect grade, B: Scirpus juncoides (Scirpus juncoides [6]): 0 (Herbicidal ratio of 5% or lower (almost no effect))

CON=C(C)CC1CC(OC(=O)COc2ccc(C(C)=O)cc2)=C(c2c(C)cc(C)cc2C)C1=O (stereo not drawn) [1-080]
N: Amaranthus retroflexus, herbicidal effect grade (Amaranthus retroflexus): 5 (Herbicidal ratio of 90% or more (almost completely withered)) | d: soybean, effect grade on crop (soybean [1]): 1 (Herbicidal ratio of 5% or higher and lower than 20%) | Herbicidal effect grade, B: Scirpus juncoides (Scirpus juncoides [2]): 4 (Herbicidal ratio of 70% or higher and lower than 90%) | Herbicidal effect grade, A: Echinochloa oryzacola Vasing. [3]: 5 (Herbicidal ratio of 90% or more (almost completely withered)) | Herbicidal effect grade, C: Monochoria vaginalis (Monochoria vaginalis): 2 (Herbicidal ratio of 20% or higher and lower than 40%) | herbicidal effect on H (Echinochloa crus-galli var. crus-galli), grade 0-5 [4]: 5 (Herbicidal ratio of 90% or more (almost completely withered)) | d: soybean, effect on crop (criteria 0-5) (soybean [5]): 4 (Herbicidal ratio of 70% or higher and lower than 90%) | g: rapeseed, effect grade on crop (rapeseed): 4 (Herbicidal ratio of 70% or higher and lower than 90%) | I: Avena fatua, herbicidal effect (criteria 0-5) (Avena fatua): 5 (Herbicidal ratio of 90% or more (almost completely withered)) | b: directly sowed rice plant, effect on crop (criteria 0-5) (rice plant): 5 (Herbicidal ratio of 90% or more (almost completely withered)) | e: wheat, effect on crop (criteria 0-5) (wheat): 4 (Herbicidal ratio of 70% or higher and lower than 90%) | Herbicidal effect grade, B: Scirpus juncoides (Scirpus juncoides [6]): 5 (Herbicidal ratio of 90% or more (almost completely withered))

CON=C(C)CC1CC(OC(=O)C2=CCCC2)=C(c2c(C)cc(C)cc2C)C1=O (stereo not drawn) [1-088]
N: Amaranthus retroflexus, herbicidal effect grade (Amaranthus retroflexus): 1 (Herbicidal ratio of 5% or higher and lower than 20%) | d: soybean, effect grade on crop (soybean [1]): 0 (Herbicidal ratio of 5% or lower (almost no effect)) | Herbicidal effect grade, B: Scirpus juncoides (Scirpus juncoides [2]): 5 (Herbicidal ratio of 90% or more (almost completely withered)) | Herbicidal effect grade, A: Echinochloa oryzacola Vasing. [3]: 5 (Herbicidal ratio of 90% or more (almost completely withered)) | Herbicidal effect grade, C: Monochoria vaginalis (Monochoria vaginalis): 3 (Herbicidal ratio of 40% or higher and lower than 70%) | herbicidal effect on H (Echinochloa crus-galli var. crus-galli), grade 0-5 [4]: 5 (Herbicidal ratio of 90% or more (almost completely withered)) | d: soybean, effect on crop (criteria 0-5) (soybean [5]): 3 (Herbicidal ratio of 40% or higher and lower than 70%) | g: rapeseed, effect grade on crop (rapeseed): 4 (Herbicidal ratio of 70% or higher and lower than 90%) | I: Avena fatua, herbicidal effect (criteria 0-5) (Avena fatua): 5 (Herbicidal ratio of 90% or more (almost completely withered)) | b: directly sowed rice plant, effect on crop (criteria 0-5) (rice plant): 5 (Herbicidal ratio of 90% or more (almost completely withered)) | e: wheat, effect on crop (criteria 0-5) (wheat): 5 (Herbicidal ratio of 90% or more (almost completely withered)) | Herbicidal effect grade, B: Scirpus juncoides (Scirpus juncoides [6]): 5 (Herbicidal ratio of 90% or more (almost completely withered))

CON=C(C)CC1CC(OC(=O)C(C)(C)Oc2ccc(Cl)cc2)=C(c2c(C)cc(C)cc2C)C1=O (stereo not drawn) [1-051]
N (Amaranthus retroflexus) herbicidal effect grade (Amaranthus retroflexus): 4 (Herbicidal ratio of 70% or higher and lower than 90%) | d (soybean) effect on crop grade (soybean [1]): 3 (Herbicidal ratio of 40% or higher and lower than 70%) | Herbicidal effect grade, B: Scirpus juncoides (Scirpus juncoides [2]): 5 (Herbicidal ratio of 90% or more (almost completely withered)) | Herbicidal effect grade, A: Echinochloa oryzacola Vasing. [3]: 5 (Herbicidal ratio of 90% or more (almost completely withered)) | Herbicidal effect grade, C: Monochoria vaginalis (Monochoria vaginalis): 3 (Herbicidal ratio of 40% or higher and lower than 70%) | herbicidal effect on H (Echinochloa crus-galli var. crus-galli), grade 0-5 [4]: 5 (Herbicidal ratio of 90% or more (almost completely withered)) | d: soybean, effect on crop grade (soybean [5]): 4 (Herbicidal ratio of 70% or higher and lower than 90%) | g (rapeseed) effect on crop grade (rapeseed): 4 (Herbicidal ratio of 70% or higher and lower than 90%) | I: Avena fatua, herbicidal effect grade (Avena fatua): 5 (Herbicidal ratio of 90% or more (almost completely withered)) | b: directly sowed rice plant, effect on crop grade (rice plant): 5 (Herbicidal ratio of 90% or more (almost completely withered)) | e: wheat, effect on crop grade (wheat): 5 (Herbicidal ratio of 90% or more (almost completely withered)) | Herbicidal effect grade, B: Scirpus juncoides (Scirpus juncoides [6]): 5 (Herbicidal ratio of 90% or more (almost completely withered))
